Test results published in patent publication US20090093669A1, “MAGNETOPHORESIS APPARATUS AND METHOD OF USE” (priority 2007, published 2009).
Where two headings read alike, the source gives them in different places.

Tests used:
[1] = type: in vitro ADME, beef
Text: Each individual magnet had: • a residual induction value of at least 1,500 mT (magnetization of 1,200,000 amp/meter); • diameter of about 12.7 mm; and a • thickness of about 6.35 mm.
The magnets were arranged in an alternating polarity sequence on an iron flux ring (the iron flux ring is shaped like a washer). This positioning increased the field in the direction away from the flux ring. This arrangement is similar to the standard QuadraBloc® sold by Gradient Technologies, LLC. The magnetic field at the center of a North Pole of the magnets was about 530 mT. The array was placed over the drug such that the face of the magnets (away from the flux ring and towards the skin) covered the drug solution applied to the test material or skin. This configuration is described in U.S. applications Ser. No. 11/469,346 which is incorporated by reference herein.
The TENS unit used in the following experiments was set for 20 volts with a pulse rate of 100 Hz and a pulse width of 200 microseconds. Other usable settings will influence the results as the strength of the field is directly proportional to all of the variables and increasing any of the variables will drive the drug faster. The settings are important for treating underlying pain; however, when drugs are being applied at the same time as the TENS is being utilized to treat pain, it generally is not desirable to use the highest settings. […]
The test system used to determine the rates of dispersion in tissue was commercial homogenized beef tissue with various levels of lipids (fat) to cells compressed into 3 mm sheets. […] The beef tissue was purchased with selected levels of fat present in the samples as measured by the producer. […] The drug or formulation to be tested was placed on top of the tissue stack and then after a specified time the stack was separated and the individual 3 mm layers (bologna sheet/slice) were analyzed for the drug content. The drug migration was analyzed by extracting the tissue at the various depths with solvents and then quantifying the drug in that sample. […]

[2] = TENS electric field applied (20 volts, 100 Hz, 200 microseconds), fat free/low fat beef tissue
[3] = control test, no applied field, fat free/low fat (lean) beef tissue, unit not given
[4] = magnetic field applied, fat free/low fat beef tissue
[5] = quadrapolar magnetic field applied (530 mT at surface), fat free/low fat beef tissue

| Compound | diffusion coefficient Dx [2] [mm^2/min] | diffusion coefficient [3] | enhancement of diffusion coefficient, magnetic field versus control [4] | diffusion coefficient Dx [5] [mm^2/min] | enhancement of diffusion coefficient, TENS versus control (cattle) | enhancement of diffusion coefficient, magnetic field versus control (cattle) | other results |
| --- | --- | --- | --- | --- | --- | --- | --- |
| CCN(CC)CC(=O)Nc1c(C)cccc1C [lidocaine] | 0.12 | 0.027 | about 1.5 times | 0.04 |  |  | enhancement of diffusion coefficient, TENS versus control (TENS field applied, fat free/low fat beef tissue): 4.4 times; increase in diffusion coefficient, magnets versus control (magnets applied, low fat beef tissue): 48% |
| O=C(c1ccccc1)c1ccc2n1CCC2C(=O)O (stereo not drawn) [ketorolac] |  |  |  |  | 6-8 times | 4-5 times |  |
| CCCCN1CCCCC1C(=O)Nc1c(C)cccc1C (stereo not drawn) [bupivacaine] |  |  |  |  | 6-8 times | 4-5 times |  |
| COc1cc(CNC(=O)CCCC/C=C/C(C)C)ccc1O [capsaicin] | 0.30 |  | 4.5 times | 0.09 | 15 times |  | depth of penetration (front) (TENS electric field, first 30 minutes, fat free tissue): 12 mm; time to totally penetrate the height of the stacks (TENS electric field, 15 mm stack, fat free tissue): 60 min; diffusion coefficient (cattle): 0.02; diffusion coefficient Dx (cattle, 0.075 %): 0.02 mm^2/min; depth of penetration (magnetic field, 30 minutes, fat free tissue): 7.5 mm; depth of penetration (magnetic field, end of 240 minutes, total tissue system, fat free tissue): 15 mm; rate of penetration, magnetic field versus control (magnetic field, fat free sample): doubled; depth of penetration (simple diffusion (control), 240 minutes, fat free tissue): 8 mm; depth of penetration (simple diffusion (control), after 30 minutes, fat free tissue): 4.5 mm; effect of TENS on the diffusion coefficient [1]: minimal effect; diffusion coefficient in lipid containing tissue versus lean tissue ([1]; cattle, 0.075 %): about 8 times; diffusion coefficient with magnets versus simple diffusion ([1]; cattle, 0.075 %): 3 times |
| insulin glargine | 0.008 | 0.002 | three and a half | 0.007 |  |  |  |
